From US8952024B2, “Herbicidal pyrimidone derivatives” (E I du Pont de Nemours and Company, priority 2009, dated 2015)

Legend:
Assay in all cases: Test E flooded paddy rice and weeds
Format in all cases: in vivo
[1] = system: junglerice (Echinochloa colona); settings: applied to paddy water, 21 days, scale 0 to 100
Description: (§1) Three plastic pots (ca. 16-cm diameter) for each application were partially filled with sterilized Tama silt loam soil comprising a 35:50:15 ratio of sand, silt and clay and 2.6% organic matter. Separate plantings for each of the three pots were as follows. Seeds from the U.S. of ducksalad (Heteranthera limosa), sedge (smallflower umbrella sedge, Cyperus difformis), ricefield bulrush (Scirpus mucronatus) and redstem (purple redstem, Ammannia coccinea), were planted into one 16-cm pot for each rate. Seeds from the U.S. of flatsedge (rice flatsedge, Cyperus iria), sprangletop (bearded (i.e. Brdd.) sprangletop, Leptochloa fascicularis), one stand of 9 or 10 water seeded rice seedlings (Oryza sativa cv. ‘Japonica—M202’), and two stands of 3 or 4 transplanted rice seedlings (Oryza sativa cv. ‘Japonica—M202’) were planted into one 16-cm pot for each rate. Seeds from the U.S. of barnyardgrass (Echinochloa crus-galli), late watergrass (Echinochloa oryzicola), early watergrass (Echinochloa oryzoides) and junglerice (Echinochloa colona) were planted into one 16-cm pot for each rate. Plantings were sequential so that crop and weed species were at the 2.0 to 2.5-leaf stage at time of treatment.
(§2) Potted plants were grown in a greenhouse with day/night temperature settings of 30/27° C., and supplemental balanced lighting was provided to maintain a 16-hour photoperiod. Test pots were maintained in the greenhouse until test completion.
(§3) At time of treatment, test pots were flooded to 3 cm above the soil surface, treated by application of test compounds directly to the paddy water, and then maintained at that water depth for the duration of the test. Effects of treatments on rice and weeds were visually evaluated by comparison to untreated controls after 21 days. Plant response ratings, summarized in Table E, are based on a scale of 0 to 100 where 0 is no effect and 100 is complete control. A dash (-) response means no test result.

[2] = system: barnyardgrass (Echinochloa crus-galli); settings: applied to paddy water, 21 days
Description: as §1, §2, §3

[3] = system: redstem (purple redstem, Ammannia coccinea); settings: applied to paddy water, 21 days, scale 0 to 100
Description: as §1, §2, §3

[4] = system: early watergrass (Echinochloa oryzoides); settings: applied to paddy water, 21 days, scale 0 to 100
Description: as §1, §2, §3

[5] = system: water seeded rice seedlings (Oryza sativa cv. ‘Japonica—M202’); settings: applied to paddy water, 21 days, scale 0 to 100
Description: as §1, §2, §3

[6] = system: ducksalad (Heteranthera limosa); settings: applied to paddy water, 21 days, scale 0 to 100
Description: as §1, §2, §3

[7] = system: ricefield bulrush (Scirpus mucronatus); settings: applied to paddy water, 21 days, scale 0 to 100
Description: as §1, §2, §3

[8] = system: transplanted rice seedlings (Oryza sativa cv. ‘Japonica—M202’); settings: applied to paddy water, 21 days, scale 0 to 100
Description: as §1, §2, §3

[9] = system: sedge (smallflower umbrella sedge, Cyperus difformis); settings: applied to paddy water, 21 days, scale 0 to 100
Description: as §1, §2, §3

[10] = system: late watergrass (Echinochloa oryzicola); settings: applied to paddy water, 21 days, scale 0 to 100
Description: as §1, §2, §3

[11] = system: flatsedge (rice flatsedge, Cyperus iria); settings: applied to paddy water, 21 days, scale 0 to 100
Description: as §1, §2, §3

Compound: COc1ccc(-n2c(-c3ccccc3)ncc(C(=O)C3=C(O)CCCC3=O)c2=O)cc1OC [Compound 218]
- Plant response rating, Junglerice, Flood ([1]; 32 g ai/ha): 0
- Plant response rating, Junglerice, Flood ([1]; 64 g ai/ha): 0
- Plant response rating, Junglerice, Flood ([1]; 125 g ai/ha): 65
- Plant response rating, Junglerice, Flood ([1]; 250 g ai/ha): 100
- Plant response rating, Barnyardgrass, Flood ([2]; 32 g ai/ha, scale 0 to 100): 0
- Plant response rating, Barnyardgrass, Flood ([2]; 64 g ai/ha, scale 0 to 100): 0
- Plant response rating, Barnyardgrass, Flood ([2]; 125 g ai/ha, scale 0 to 100): 30
- Plant response rating, Barnyardgrass, Flood ([2]; 250 g ai/ha, scale 0 to 100): 95
- Plant response rating, Redstem, Flood ([3]; 32 g ai/ha): 65
- Plant response rating, Redstem, Flood ([3]; 64 g ai/ha): 65
- Plant response rating, Redstem, Flood ([3]; 125 g ai/ha): 75
- Plant response rating, Redstem, Flood ([3]; 250 g ai/ha): 80
- Plant response rating, Watergrass, Early, Flood ([4]; 32 g ai/ha): 0
- Plant response rating, Watergrass, Early, Flood ([4]; 64 g ai/ha): 20
- Plant response rating, Watergrass, Early, Flood ([4]; 125 g ai/ha): 20
- Plant response rating, Watergrass, Early, Flood ([4]; 250 g ai/ha): 60
- Plant response rating, Rice, Water Seeded, Flood ([5]; 32 g ai/ha): 15
- Plant response rating, Rice, Water Seeded, Flood ([5]; 64 g ai/ha): 0
- Plant response rating, Rice, Water Seeded, Flood ([5]; 125 g ai/ha): 20
- Plant response rating, Rice, Water Seeded, Flood ([5]; 250 g ai/ha): 35
- Plant response rating, Ducksalad, Flood ([6]; 32 g ai/ha): 80
- Plant response rating, Ducksalad, Flood ([6]; 64 g ai/ha): 85
- Plant response rating, Ducksalad, Flood ([6]; 125 g ai/ha): 95
- Plant response rating, Ducksalad, Flood ([6]; 250 g ai/ha): 100
- Plant response rating, Bulrush, Ricefield, Flood ([7]; 32 g ai/ha): 80
- Plant response rating, Bulrush, Ricefield, Flood ([7]; 64 g ai/ha): 80
- Plant response rating, Bulrush, Ricefield, Flood ([7]; 125 g ai/ha): 90
- Plant response rating, Bulrush, Ricefield, Flood ([7]; 250 g ai/ha): 100
- Plant response rating, Rice, Transplanted, Flood ([8]; 32 g ai/ha): 0
- Plant response rating, Rice, Transplanted, Flood ([8]; 64 g ai/ha): 0
- Plant response rating, Rice, Transplanted, Flood ([8]; 125 g ai/ha): 0
- Plant response rating, Rice, Transplanted, Flood ([8]; 250 g ai/ha): 10
- Plant response rating, Sedge, Umbrella, Flood ([9]; 32 g ai/ha): 85
- Plant response rating, Sedge, Umbrella, Flood ([9]; 64 g ai/ha): 95
- Plant response rating, Sedge, Umbrella, Flood ([9]; 125 g ai/ha): 100
- Plant response rating, Sedge, Umbrella, Flood ([9]; 250 g ai/ha): 100
- Plant response rating, Watergrass, Late, Flood ([10]; 32 g ai/ha): 20
- Plant response rating, Watergrass, Late, Flood ([10]; 64 g ai/ha): 40
- Plant response rating, Watergrass, Late, Flood ([10]; 125 g ai/ha): 40
- Plant response rating, Watergrass, Late, Flood ([10]; 250 g ai/ha): 70
- Plant response rating, Flatsedge, Rice, Flood ([11]; 32 g ai/ha): 75
- Plant response rating, Flatsedge, Rice, Flood ([11]; 64 g ai/ha): 70
- Plant response rating, Flatsedge, Rice, Flood ([11]; 125 g ai/ha): 70
- Plant response rating, Flatsedge, Rice, Flood ([11]; 250 g ai/ha): 75

Compound: COc1ccc(-n2c(-c3ccccc3)ncc(C(=O)C3=C(O)CCCC3=O)c2=O)cc1 [Compound 4, 5-[(2-hydroxy-6-oxo-cyclohexen-1-yl)carbonyl]-3-(4-methoxyphenyl)-2-phenyl-4(3H)-pyrimidinone]
- Plant response rating, Junglerice, Flood ([1]; 125 g ai/ha): 0
- Plant response rating, Junglerice, Flood ([1]; 250 g ai/ha): 25
- Plant response rating, Junglerice, Flood ([1]; 500 g ai/ha): 50
- Plant response rating, Barnyardgrass, Flood ([2]; 125 g ai/ha, scale 0 to 100): 0
- Plant response rating, Barnyardgrass, Flood ([2]; 250 g ai/ha, scale 0 to 100): 60
- Plant response rating, Barnyardgrass, Flood ([2]; 500 g ai/ha, scale 0 to 100 (0 no effect, 100 complete control)): 60
- Plant response rating, Redstem, Flood ([3]; 125 g ai/ha): 80
- Plant response rating, Redstem, Flood ([3]; 250 g ai/ha): 80
- Plant response rating, Redstem, Flood ([3]; 500 g ai/ha): 85
- Plant response rating, Watergrass, Early, Flood ([4]; 125 g ai/ha): 0
- Plant response rating, Watergrass, Early, Flood ([4]; 250 g ai/ha): 60
- Plant response rating, Watergrass, Early, Flood ([4]; 500 g ai/ha): 65
- Plant response rating, Rice, Water Seeded, Flood ([5]; 125 g ai/ha): 10
- Plant response rating, Rice, Water Seeded, Flood ([5]; 250 g ai/ha): 20
- Plant response rating, Rice, Water Seeded, Flood ([5]; 500 g ai/ha): 50
- Plant response rating, Ducksalad, Flood ([6]; 125 g ai/ha): 90
- Plant response rating, Ducksalad, Flood ([6]; 250 g ai/ha): 100
- Plant response rating, Ducksalad, Flood ([6]; 500 g ai/ha): 100
- Plant response rating, Bulrush, Ricefield, Flood ([7]; 125 g ai/ha): 40
- Plant response rating, Bulrush, Ricefield, Flood ([7]; 250 g ai/ha): 80
- Plant response rating, Bulrush, Ricefield, Flood ([7]; 500 g ai/ha): 80
- Plant response rating, Rice, Transplanted, Flood ([8]; 125 g ai/ha): 0
- Plant response rating, Rice, Transplanted, Flood ([8]; 250 g ai/ha): 0
- Plant response rating, Rice, Transplanted, Flood ([8]; 500 g ai/ha): 15
- Plant response rating, Sedge, Umbrella, Flood ([9]; 125 g ai/ha): 90
- Plant response rating, Sedge, Umbrella, Flood ([9]; 250 g ai/ha): 95
- Plant response rating, Sedge, Umbrella, Flood ([9]; 500 g ai/ha): 100
- Plant response rating, Watergrass, Late, Flood ([10]; 125 g ai/ha): 0
- Plant response rating, Watergrass, Late, Flood ([10]; 250 g ai/ha): 15
- Plant response rating, Watergrass, Late, Flood ([10]; 500 g ai/ha): 60
- Plant response rating, Flatsedge, Rice, Flood ([11]; 125 g ai/ha): 0
- Plant response rating, Flatsedge, Rice, Flood ([11]; 250 g ai/ha): 40
- Plant response rating, Flatsedge, Rice, Flood ([11]; 500 g ai/ha): 90

Compound: Cc1ccc(-n2c(-c3ccccc3)ncc(C(=O)C3=C(O)CCCC3=O)c2=O)c(C)c1 [Compound 28]
- Plant response rating, Junglerice, Flood ([1]; 32 g ai/ha): 0
- Plant response rating, Junglerice, Flood ([1]; 64 g ai/ha): 0
- Plant response rating, Junglerice, Flood ([1]; 125 g ai/ha): 0
- Plant response rating, Junglerice, Flood ([1]; 250 g ai/ha): 0
- Plant response rating, Barnyardgrass, Flood ([2]; 32 g ai/ha, scale 0 to 100): 0
- Plant response rating, Barnyardgrass, Flood ([2]; 64 g ai/ha, scale 0 to 100): 0
- Plant response rating, Barnyardgrass, Flood ([2]; 125 g ai/ha, scale 0 to 100): 0
- Plant response rating, Barnyardgrass, Flood ([2]; 250 g ai/ha, scale 0 to 100): 0
- Plant response rating, Redstem, Flood ([3]; 32 g ai/ha): 0
- Plant response rating, Redstem, Flood ([3]; 64 g ai/ha): 40
- Plant response rating, Redstem, Flood ([3]; 125 g ai/ha): 50
- Plant response rating, Redstem, Flood ([3]; 250 g ai/ha): 90
- Plant response rating, Watergrass, Early, Flood ([4]; 32 g ai/ha): 0
- Plant response rating, Watergrass, Early, Flood ([4]; 64 g ai/ha): 0
- Plant response rating, Watergrass, Early, Flood ([4]; 125 g ai/ha): 0
- Plant response rating, Watergrass, Early, Flood ([4]; 250 g ai/ha): 20
- Plant response rating, Rice, Water Seeded, Flood ([5]; 32 g ai/ha): 45
- Plant response rating, Rice, Water Seeded, Flood ([5]; 64 g ai/ha): 60
- Plant response rating, Rice, Water Seeded, Flood ([5]; 125 g ai/ha): 65
- Plant response rating, Rice, Water Seeded, Flood ([5]; 250 g ai/ha): 85
- Plant response rating, Ducksalad, Flood ([6]; 32 g ai/ha): 0
- Plant response rating, Ducksalad, Flood ([6]; 64 g ai/ha): 0
- Plant response rating, Ducksalad, Flood ([6]; 125 g ai/ha): 80
- Plant response rating, Ducksalad, Flood ([6]; 250 g ai/ha): 100
- Plant response rating, Bulrush, Ricefield, Flood ([7]; 32 g ai/ha): 20
- Plant response rating, Bulrush, Ricefield, Flood ([7]; 64 g ai/ha): 30
- Plant response rating, Bulrush, Ricefield, Flood ([7]; 125 g ai/ha): 35
- Plant response rating, Bulrush, Ricefield, Flood ([7]; 250 g ai/ha): 65
- Plant response rating, Rice, Transplanted, Flood ([8]; 32 g ai/ha): 0
- Plant response rating, Rice, Transplanted, Flood ([8]; 64 g ai/ha): 15
- Plant response rating, Rice, Transplanted, Flood ([8]; 125 g ai/ha): 15
- Plant response rating, Rice, Transplanted, Flood ([8]; 250 g ai/ha): 15
- Plant response rating, Sedge, Umbrella, Flood ([9]; 32 g ai/ha): 0
- Plant response rating, Sedge, Umbrella, Flood ([9]; 64 g ai/ha): 85
- Plant response rating, Sedge, Umbrella, Flood ([9]; 125 g ai/ha): 90
- Plant response rating, Sedge, Umbrella, Flood ([9]; 250 g ai/ha): 100
- Plant response rating, Watergrass, Late, Flood ([10]; 32 g ai/ha): 0
- Plant response rating, Watergrass, Late, Flood ([10]; 64 g ai/ha): 0
- Plant response rating, Watergrass, Late, Flood ([10]; 125 g ai/ha): 0
- Plant response rating, Watergrass, Late, Flood ([10]; 250 g ai/ha): 0
- Plant response rating, Flatsedge, Rice, Flood ([11]; 32 g ai/ha): 0
- Plant response rating, Flatsedge, Rice, Flood ([11]; 64 g ai/ha): 0
- Plant response rating, Flatsedge, Rice, Flood ([11]; 125 g ai/ha): 0
- Plant response rating, Flatsedge, Rice, Flood ([11]; 250 g ai/ha): 45
